From US9675592B2, “Methods and compositions for bacteria infections” (priority 2013, dated 2017)
Where two headings read alike, the source gives them in different places.

Assays:
[1] = test system: vraSR promoter (Pvra-lux reporter in strain 923); test: Primary screen, relative luminescence (vraSR expression)
[2] = test system: test strain 923 pPvra-lux (USA300 MRSA); test: Primary screen, relative growth in presence of oxacillin; conditions: compound 10 μM with oxacillin 2 μg/mL, absorbance 24 h, <0.50 = dead cells = hit
[3] = primary screen, compound 10 μM with oxacillin 2 μg/mL, <0.50 = vraSR repressed = hit

| SMILES | RL avg (relative luminescence) [1, 3] | RG avg (relative growth) [2] | RL avg (relative luminescence) [1] |
| --- | --- | --- | --- |
| COc1cccc2cc(-c3nnc(NC(=O)c4ccc5ncsc5c4)o3)oc12 [F2273-114] | 0.26 | 0.26 | – |
| O=C(Nc1nnc(-c2ccc(F)cc2)o1)c1ccc(F)cc1 [F1374-116] | 0.34 | 0.00 | – |
| O=C(Nc1nnc(-c2cc(Cl)ccc2Cl)o1)c1cc(-c2ccccc2)nc2ccccc12 [F2518-55] | −0.02 | 0.00 | – |
| O=C(Nc1nnc(-c2ccc3c(c2)CCCC3)o1)c1sc2ccccc2c1Cl [F0608-665] | −0.01 | 0.19 | – |
| CCN(CC)S(=O)(=O)c1ccc(C(=O)Nc2nnc(-c3ccc4c(c3)CCCC4)o2)cc1 [F0608-543] | −0.08 | −0.02 | – |
| O=C(Nc1nnc(-c2ccc(Br)s2)o1)c1ccc2ncsc2c1 [F5093-111] | −0.02 | −0.02 | – |
| COc1ccc(-c2nnc(NC(=O)c3ccc(S(=O)(=O)N(C)Cc4ccccc4)cc3)o2)c(OC)c1 [F0559-398] | −0.11 | −0.07 | – |
| COc1ccccc1-c1nnc(NC(=O)c2cccc(Br)c2)o1 [F1374-224] | 0.34 | −0.01 | – |
| O=C(Nc1nnc(-c2cc(Cl)ccc2Cl)o1)c1cc(Cl)ccc1Cl [F2518-49] | −0.05 | −0.03 | – |
| CCN(Cc1ccccc1)S(=O)(=O)c1ccc(C(=O)Nc2nnc(-c3ccc(OC)cc3)o2)cc1 [F0559-206] | −0.11 | 0.19 | – |
| O=C(Nc1nnc(-c2ccc(F)cc2)o1)c1nc2ccccc2s1 [F1374-138] | 0.40 | 0.00 | – |
| O=C(Nc1nnc(-c2cc(Cl)ccc2Cl)o1)c1ccc(C(=O)c2ccccc2)cc1 [F2518-24] | 0.06 | −0.01 | – |
| C=CCN(CC=C)S(=O)(=O)c1ccc(C(=O)Nc2nnc(-c3ccccc3OC)o2)cc1 [F0559-129] | −0.07 | −0.08 | – |
| CC1CCCCN1S(=O)(=O)c1ccc(C(=O)Nc2nnc(-c3ccc4c(c3)OCCO4)o2)cc1 (stereo not drawn) [F0608-71] | 0.01 | −0.03 | – |
| CCN(CC)S(=O)(=O)c1ccc(C(=O)Nc2nnc(-c3cc(C)ccc3C)o2)cc1 [F2518-298] | 0.06 | −0.02 | – |
| O=C(Nc1nnc(-c2cc3ccccc3o2)o1)c1nc2ccccc2s1 [F2273-415] | 0.22 | 0.27 | – |
| O=C(Nc1nnc(-c2ccc(Br)s2)o1)c1ccc(F)cc1 [F5093-12] | −0.01 | 0.01 | – |
| O=C(Nc1nnc(-c2ccc(F)cc2)o1)c1ccc(Br)s1 [F1374-140] | 0.35 | 0.02 | – |
| O=C(Nc1nnc(-c2ccc(Cl)s2)o1)c1ccccc1Oc1ccccc1 [F1374-1149] | 0.28 | −0.01 | – |
| O=C(Nc1nnc(-c2ccc3c(c2)CCCC3)o1)c1cccs1 [F0608-554] | −0.08 | −0.04 | – |

| SMILES | RL avg (relative luminescence) [1, 3] | RG avg (relative growth) [2] | RL avg (relative luminescence) [1] |
| --- | --- | --- | --- |
| O=C(Nc1nnc(-c2ccc(Cl)cc2)o1)c1cccs1 [F1374-757] | 0.29 | 0.02 | – |
| CCC1CCCCN1S(=O)(=O)c1ccc(C(=O)Nc2nnc(Cc3ccc(OC)cc3)o2)cc1 (stereo not drawn) [F2368-619] | 0.01 | −0.03 | – |
| Cc1ccc(C)c(-c2nnc(NC(=O)c3ccc(Br)s3)o2)c1 [F2518-329] | −0.11 | 0.00 | – |
| O=C(Nc1nnc(-c2ccc3c(c2)CCCC3)o1)c1ccc(S(=O)(=O)N2CCOCC2)cc1 [F0608-560] | −0.07 | −0.07 | – |
| Cc1ccc(-c2nnc(NC(=O)c3ccc(F)cc3)o2)cc1C [F2767-12] | 0.01 | 0.02 | – |
| COc1cccc(-c2nnc(NC(=O)c3ccc(S(=O)(=O)N(Cc4ccccc4)C(C)C)cc3)o2)c1 [F0559-178] | −0.07 | −0.06 | – |
| O=C(Nc1nnc(-c2ccc(Br)cc2)o1)c1ccc2ncsc2c1 [F2518-558] | −0.08 | −0.02 | – |
| O=C(Nc1nnc(-c2cccs2)o1)c1cccc(C(F)(F)F)c1 [F1374-982] | 0.35 | 0.13 | – |
| COc1cccc2cc(C(=O)Nc3nnc(-c4ccc(Br)s4)o3)oc12 [F5093-196] | −0.01 | −0.01 | – |
| COc1cccc2cc(-c3nnc(NC(=O)c4nc5ccccc5s4)o3)oc12 [F2273-37] | 0.09 | 0.09 | – |
| COc1ccc(-c2nnc(NC(=O)c3cc(Cl)sc3Cl)o2)c(OC)c1 [F1374-583] | 0.36 | 0.00 | – |
| CC1CCCCN1S(=O)(=O)c1ccc(C(=O)Nc2nnc(C3COc4ccccc4O3)o2)cc1 (stereo not drawn) [F0608-741] | −0.04 | −0.02 | – |
| COc1cccc2cc(-c3nnc(NC(=O)c4cccc(F)c4)o3)oc12 [F2273-13] | −0.06 | −0.03 | – |
| CCOc1ccc(C(=O)Nc2nnc(-c3ccc(Cl)s3)o2)cc1 [F1374-1129] | – | 0.00 | 0.47 |
| COc1cc(OC)cc(-c2nnc(NC(=O)c3ccc(S(=O)(=O)N(C)c4ccccc4)cc3)o2)c1 [F0559-246] | −0.08 | −0.03 | – |
| O=C(Nc1nc(-c2ccccn2)cs1)c1cccc(Oc2ccccc2)c1 [F0447-264] | −0.05 | −0.03 | – |
| COc1cccc(-c2nnc(NC(=O)c3ccc(S(=O)(=O)N4CCc5ccccc5C4)cc3)o2)c1 [F0559-171] | −0.11 | −0.06 | – |
| O=C(Nc1nnc(-c2ccc3c(c2)CCCC3)o1)c1cccc(Cl)c1 [F0608-659] | −0.08 | −0.05 | – |
| COc1cc(-c2nnc(NC(=O)c3ccc(S(=O)(=O)N4CCc5ccccc5C4)cc3)o2)cc(OC)c1OC [F0559-321] | −0.09 | −0.03 | – |
| O=C(Nc1nnc(-c2cccs2)o1)c1sc2ccccc2c1Cl [F1374-988] | 0.37 | 0.03 | – |

| SMILES | RL avg (relative luminescence) [1, 3] | RG avg (relative growth) [2] | RL avg (relative luminescence) [1] |
| --- | --- | --- | --- |
| O=C(Nc1nnc(-c2ccccc2)o1)c1ccc(Br)s1 [F1374-875] | 0.30 | 0.04 | – |
| COc1ccccc1-c1nnc(NC(=O)c2ccc(Cc3ccccc3)cc2)o1 [F1374-276] | 0.39 | 0.01 | – |
| O=C(Nc1nnc(-c2cccnc2)o1)c1cccc(Br)c1 [F0608-950] | −0.14 | −0.01 | – |
| O=C(Nc1nnc(-c2cccs2)o1)c1ccc2c(c1)CCCC2 [F1374-1012] | 0.49 | 0.16 | – |
| O=C(Nc1nnc(-c2ccccc2Cl)o1)c1cc(Cl)sc1Cl [F1374-58] | 0.33 | 0.03 | – |
| COC(=O)c1ccc(C(=O)Nc2nnc(-c3cc(C)ccc3C)o2)cc1 [F2518-355] | −0.04 | −0.01 | – |
| Cc1ccc(-c2nnc(NC(=O)c3ccc(S(=O)(=O)N4CCCCC4C)cc3)o2)c(C)c1 (stereo not drawn) [F2518-228] | −0.14 | 0.00 | – |
| O=C(Nc1nnc(-c2ccco2)o1)c1ccc(S(=O)(=O)N2CCCc3ccccc32)cc1 [F0608-447] | −0.02 | −0.05 | – |
| CCN(c1ccccc1)S(=O)(=O)c1ccc(C(=O)Nc2nnc(-c3ccccc3SC)o2)cc1 [F2645-115] | 0.45 | 0.13 | – |
| COc1cc(-c2nnc(NC(=O)c3ccc(S(=O)(=O)N4CCCC4)cc3)o2)cc(OC)c1OC [F0559-311] | 0.02 | −0.06 | – |
| O=C(Nc1nnc(-c2ccccc2Cl)o1)c1cccc(Br)c1 [F1374-14] | 0.38 | 0.24 | – |
| COc1cc(-c2nnc(NC(=O)c3ccc(S(=O)(=O)N(Cc4ccccc4)C(C)C)cc3)o2)cc(OC)c1OC [F0559-328] | 0.01 | 0.15 | – |
| O=C(Nc1nnc(-c2ccc(F)cc2)o1)c1sc2ccccc2c1Cl [F1374-148] | 0.36 | 0.04 | – |
| CCOc1cc(C(=O)Nc2nnc(-c3ccccc3SC)o2)cc(OCC)c1OCC [F2645-99] | 0.43 | 0.09 | – |
| O=C(Nc1nnc(-c2ccc(Br)cc2)o1)c1cccc(C(F)(F)F)c1 [F2518-477] | 0.03 | 0.01 | – |
| Cc1ccccc1C(=O)Nc1nnc(-c2ccc3c(c2)CCCC3)o1 [F0608-614] | −0.05 | 0.08 | – |
| COc1cc(OC)cc(-c2nnc(NC(=O)c3ccc(Cl)cc3Cl)o2)c1 [F1374-651] | 0.38 | 0.04 | – |
| CC(C)n1nccc1C(=O)Nc1nnc(-c2cc(Cl)sc2Cl)o1 [F1374-2902] | 0.33 | 0.00 | – |
| O=C(Nc1nnc(-c2ccc(F)cc2)o1)c1ccc2c(c1)CCCC2 [F1374-172] | 0.39 | 0.04 | – |
| CCCCN(CC)S(=O)(=O)c1ccc(C(=O)Nc2nnc(-c3ccccc3Cl)o2)cc1 [F0559-36] | −0.16 | −0.08 | – |
